Reference: patent US12172983B2, “EGFR inhibitors” (Blueprint Medicines Corporation, priority 2019, dated 2024)
Like-named read-outs stand apart in the source and are kept apart here.

What was measured:
EGFR (L858R T790M C797S) = target: T1, EGFR (L858R T790M C797S) (Homo sapiens, UniProt P00533, C797S/L858R/T790M); test: Biochemical EGFR inhibition assay (Caliper mobility shift), EGFR LRTMCS mutant; settings: inhibitory activity against EGFR LRTMCS mutant; apparent IC50; read-out: Ext Enz LRTMCS
T1 construct: purchased SignalChem E10-122VG
Summary of the method: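 Kinase reactions at 25 °C run to 10–20% peptide phosphorylation, stopped with 35 mM EDTA. Phosphorylated product and substrate separated electrophoretically by mobility shift. Apparent IC50 from percent activity versus log compound concentration.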

[1] = tested on: phosphorylation of EGFR (Tyr1068) in NCI-H1975 cell line that harbors the EGFR L858R T790M mutations; test: NCI-H1975 pEGFR AlphaLISA assay; format: cell-based; settings: 4-5 hours incubation, read-out: Ext pEGFR H1975
Summary of the method: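 NCI-H1975 cells (EGFR L858R/T790M) seeded overnight, then treated with compound for 4-5 h at 37 °C/5% CO2. After lysis, p-EGFR (Tyr1068) quantified by AlphaLISA SureFire Ultra with acceptor then donor beads; IC50 fitted from percent inhibition versus log concentration.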

[2] = Homo sapiens, NCI-H1975, inhibition of phosphorylation of mutant EGFR in NCI-H1975 cells

T1 sequence (P00533 25-1210 T790M/C797S/L858R): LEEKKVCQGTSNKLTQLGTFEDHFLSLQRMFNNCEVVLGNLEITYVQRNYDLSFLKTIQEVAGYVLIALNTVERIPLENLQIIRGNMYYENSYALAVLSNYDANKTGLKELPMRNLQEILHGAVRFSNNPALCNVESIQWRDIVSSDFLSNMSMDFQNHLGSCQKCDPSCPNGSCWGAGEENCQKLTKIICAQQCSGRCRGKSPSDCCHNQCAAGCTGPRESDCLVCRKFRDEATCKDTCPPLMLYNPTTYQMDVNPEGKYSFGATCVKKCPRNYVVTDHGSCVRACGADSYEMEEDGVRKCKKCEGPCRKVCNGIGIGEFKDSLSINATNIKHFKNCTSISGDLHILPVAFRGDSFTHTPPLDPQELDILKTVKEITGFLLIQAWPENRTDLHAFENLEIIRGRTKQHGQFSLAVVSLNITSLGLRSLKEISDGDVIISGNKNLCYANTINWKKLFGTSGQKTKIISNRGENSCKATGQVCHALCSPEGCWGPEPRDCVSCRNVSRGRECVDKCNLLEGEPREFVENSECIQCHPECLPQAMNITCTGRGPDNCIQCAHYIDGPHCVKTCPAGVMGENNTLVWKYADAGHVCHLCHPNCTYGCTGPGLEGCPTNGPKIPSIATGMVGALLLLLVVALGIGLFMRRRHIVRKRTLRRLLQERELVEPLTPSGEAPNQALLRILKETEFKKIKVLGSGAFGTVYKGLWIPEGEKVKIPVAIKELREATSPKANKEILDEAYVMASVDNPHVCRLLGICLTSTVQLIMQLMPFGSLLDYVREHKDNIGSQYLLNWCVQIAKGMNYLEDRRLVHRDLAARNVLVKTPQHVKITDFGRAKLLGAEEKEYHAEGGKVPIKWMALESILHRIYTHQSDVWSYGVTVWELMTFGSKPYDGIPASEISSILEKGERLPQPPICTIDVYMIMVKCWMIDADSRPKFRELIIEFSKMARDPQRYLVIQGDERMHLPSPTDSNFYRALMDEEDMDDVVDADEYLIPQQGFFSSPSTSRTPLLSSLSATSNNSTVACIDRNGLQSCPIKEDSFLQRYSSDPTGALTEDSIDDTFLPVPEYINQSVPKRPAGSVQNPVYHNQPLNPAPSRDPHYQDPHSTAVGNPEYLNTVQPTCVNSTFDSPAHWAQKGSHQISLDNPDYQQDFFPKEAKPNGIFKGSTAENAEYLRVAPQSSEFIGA

| IC50 (EGFR (L858R T790M C797S)) [nM] | IC50 [1, 2] [nM] | IC50 ([1]; inhibition of phosphorylation of mutant EGFR in NCI-H1975 cells) [nM] | Compound |
| --- | --- | --- | --- |
| ≤ 15 | ≤ 10 |  | CC(C)c1ccc(N2C[C@H](CS(C)(=O)=O)[C@H]2C)c2cnc(Nc3cnnc(N4CC[C@@H](O)[C@@](C)(F)C4)n3)cc12 (single isomer, unassigned) [Compound 130] |
| 20.1 to 30 | ≤ 10 |  | [2H]C([2H])([2H])O[C@H]1[C@@H](O)CN(c2nccc(Nc3cc4c(C(C)C)ccc(N5C[C@H](CS(C)(=O)=O)[C@H]5C)c4cn3)n2)CC1(F)F (single isomer, unassigned) [Compound 313, (3S,4S)-5,5-difluoro-1-(4-((5-isopropyl-8-((2R,3S)-2-methyl-3-((methylsulfonyl)methyl)azetidin-1-yl)isoquinolin-3-yl)amino)pyrimidin-2-yl)-4-(^2H3)methoxypiperidin-3-ol or (3R,4R)-5,5-difluoro-1-(4-((5-isopropyl-8-((2R,3S)-2-methyl-3-((methylsulfonyl)methyl)azetidin-1-yl)isoquinolin-3-yl)amino)pyrimidin-2-yl)-4-(^2H3)methoxypiperidin-3-ol] |
| ≤ 15 | ≤ 10 |  | CC(C)c1ncc(N2C[C@H](CS(C)(=O)=O)[C@H]2C)c2cnc(Nc3ccnc(N4CC[C@@](C)(O)C(F)(F)C4)n3)cc12 (single isomer, unassigned) [Compound 214, (4R)-3,3-difluoro-1-[4-({8-[(2R,3S)-3-(methanesulfonylmethyl)-2-methylazetidin-1-yl]-5-(propan-2-yl)-2,6-naphthyridin-3-yl}amino)pyrimidin-2-yl]-4-methylpiperidin-4-ol or (4S)-3,3-difluoro-1-[4-({8-[(2R,3S)-3-(methanesulfonylmethyl)-2-methylazetidin-1-yl]-5-(propan-2-yl)-2,6-naphthyridin-3-yl}amino)pyrimidin-2-yl]-4-methylpiperidin-4-ol] |
| ≤ 15 | ≤ 10 |  | CC(C)c1ccc(N2CC(CS(C)(=O)=O)C2)c2cnc(Nc3ccnc(N4CC[C@](C)(O)C[C@@H]4C)n3)cc12 (single isomer, unassigned) [Compound 44, (2R,4R)-1-[4-({8-[3-(methanesulfonylmethyl)azetidin-1-yl]-5-(propan-2-yl)isoquinolin-3-yl}amino)pyrimidin-2-yl]-2,4-dimethylpiperidin-4-ol or (2S,4S)-1-[4-({8-[3-(methanesulfonylmethyl)azetidin-1-yl]-5-(propan-2-yl)isoquinolin-3-yl}amino)pyrimidin-2-yl]-2,4-dimethylpiperidin-4-ol] |
| ≤ 15 | ≤ 10 |  | CCS(=O)(=O)C[C@H]1CN(c2ccc(C(C)C)c3cc(Nc4ccnc(N5CC[C@H](OC)[C@@H](O)C5)n4)ncc23)[C@@H]1C (single isomer, unassigned) [Compound 177, (3S,4S)-1-(4-(8-((2R,3S)-3-(ethylsulfonylmethyl)-2-methylazetidin-1-yl)-5-isopropylisoquinolin-3-ylamino)pyrimidin-2-yl)-4-methoxypiperidin-3-ol or (3R,4R)-1-(4-(8-((2R,3S)-3-(ethylsulfonylmethyl)-2-methylazetidin-1-yl)-5-isopropylisoquinolin-3-ylamino)pyrimidin-2-yl)-4-methoxypiperidin-3-ol] |
| ≤ 15 | ≤ 10 |  | CO[C@H]1CCN(c2nncc(Nc3cc4c(C(C)C)ccc(N5C[C@H](CS(C)(=O)=O)[C@H]5C)c4cn3)n2)C[C@H]1F [Compound 133, N-{3-[(3R,4S)-3-fluoro-4-methoxypiperidin-1-yl]-1,2,4-triazin-5-yl}-8-[(2R,3S)-3-(methanesulfonylmethyl)-2-methylazetidin-1-yl]-5-(propan-2-yl)isoquinolin-3-amine] |
| 20.1 to 30 | 30.1 to 50 |  | CC1(C)CN(c2nccc(Nc3cc4c(F)cc(F)c(N5CC(CS(C)(=O)=O)C5)c4cn3)n2)C[C@@H](F)[C@H]1O (single isomer, unassigned) [Compound 86, (4S,5R)-1-[4-[[5,7-difluoro-8-[3-(methylsulfonylmethyl)azetidin-1-yl]-3-isoquinolyl]amino]pyrimidin-2-yl]-5-fluoro-3,3-dimethyl-piperidin-4-ol or (4R,5S)-1-[4-[[5,7-difluoro-8-[3-(methylsulfonylmethyl)azetidin-1-yl]-3-isoquinolyl]amino]pyrimidin-2-yl]-5-fluoro-3,3-dimethyl-piperidin-4-ol] |
| ≤ 15 | ≤ 10 |  | CCS(=O)(=O)C[C@H]1CN(c2ccc(C(C)C)c3cc(Nc4ccnc(N5CC[C@H](OCCO)[C@H](F)C5)n4)ncc23)[C@@H]1C [Compound 243, 2-((3R,4S)-1-(4-(8-((2R,3S)-3-(ethylsulfonylmethyl)-2-methylazetidin-1-yl)-5-isopropylisoquinolin-3-ylamino)pyrimidin-2-yl)-3-fluoropiperidin-4-yloxy)ethanol] |
| ≤ 15 | ≤ 10 |  | CNCCO[C@@H]1CCN(c2nccc(Nc3cc4c(C(C)C)ccc(N5C[C@H](CS(C)(=O)=O)[C@H]5C)c4cn3)n2)CC1(F)F (single isomer, unassigned) [Compound 300, N-{2-[(4R)-3,3-difluoro-4-[2-(methylamino)ethoxy]piperidin-1-yl]pyrimidin-4-yl}-8-[(2R,3S)-3-(methanesulfonylmethyl)-2-methylazetidin-1-yl]-5-(propan-2-yl)isoquinolin-3-amine or N-{2-[(4S)-3,3-difluoro-4-[2-(methylamino)ethoxy]piperidin-1-yl]pyrimidin-4-yl}-8-[(2R,3S)-3-(methanesulfonylmethyl)-2-methylazetidin-1-yl]-5-(propan-2-yl)isoquinolin-3-amine] |
| ≤ 15 | ≤ 10 |  | CC(C)c1ccc(N2CC(CS(=O)(=O)CCN(C)C)C2)c2cnc(Nc3ccnc(N4CC[C@@H](O)[C@@](C)(F)C4)n3)cc12 (single isomer, unassigned) [Compound 239] |
| 15.1 to 20 | 30.1 to 50 |  | CC(C)c1ccc(N2CC(CS(C)(=O)=O)C2)c2cnc(Nc3ccnc(N4CCOCC4)n3)cc12 [Compound 1, 8-[3-(methanesulfonylmethyl)azetidin-1-yl]-N-[2-(morpholin-4-yl)pyrimidin-4-yl]-5-(propan-2-yl)isoquinolin-3-amine] |
| ≤ 15 | ≤ 10 |  | CCS(=O)(=O)C[C@H]1CN(c2ccc(C(C)C)c3cc(Nc4cnnc(N5CC[C@@H](OC)[C@@H](F)C5)n4)ncc23)[C@@H]1C [Compound 288, 8-[(2R,3S)-3-[(ethanesulfonyl)methyl]-2-methylazetidin-1-yl]-N-{3-[(3S,4R)-3-fluoro-4-methoxypiperidin-1-yl]-1,2,4-triazin-5-yl}-5-(propan-2-yl)isoquinolin-3-amine] |
| ≤ 15 | ≤ 10 |  | C[C@@H]1[C@@H](CS(C)(=O)=O)CN1c1ccc(F)c2cc(Nc3ccnc(N4CC[C@@H](O)[C@@](C)(F)C4)n3)ncc12 (single isomer, unassigned) [Compound 33] |
| ≤ 15 | ≤ 10 |  | CC(C)c1ccc(N2C[C@H](CS(C)(=O)=O)[C@H]2C)c2cnc(Nc3ccnc(N4CC[C@@H](OCCO)[C@@H](F)C4)n3)cc12 [Compound 229, 2-((3S,4R)-3-fluoro-1-(4-(5-isopropyl-8-((2R,3S)-2-methyl-3-(methylsulfonylmethyl)azetidin-1-yl)isoquinolin-3-ylamino)pyrimidin-2-yl)piperidin-4-yloxy)ethanol] |
| ≤ 15 | ≤ 10 |  | CC(C)c1ncc(N2C[C@H](CS(C)(=O)=O)[C@H]2C)c2cnc(Nc3ccnc(N4CC[C@@H](OC5CC5)[C@@H](F)C4)n3)cc12 [Compound 225] |
| 15.1 to 20 | 20.1 to 30 |  | CCOc1ccc(N2CC(CS(=O)(=O)CC)C2)c2cnc(Nc3ccnc(N4CC[C@@H](O)[C@@](C)(F)C4)n3)cc12 (single isomer, unassigned) [Compound 145] |
| ≤ 15 | ≤ 10 |  | CCS(=O)(=O)CC1CN(c2ccc(C(C)C)c3cc(Nc4ccnc(N5CC[C@@H](OC)[C@@H](O)C5)n4)ncc23)C1 (single isomer, unassigned) [Compound 91, (3S,4R)-1-{4-[(8-{3-[(ethanesulfonyl)methyl]azetidin-1-yl}-5-(propan-2-yl)isoquinolin-3-yl)amino]pyrimidin-2-yl}-4-methoxypiperidin-3-ol or (3R,4S)-1-{4-[(8-{3-[(ethanesulfonyl)methyl]azetidin-1-yl}-5-(propan-2-yl)isoquinolin-3-yl)amino]pyrimidin-2-yl}-4-methoxypiperidin-3-ol] |
| ≤ 15 | 30.1 to 50 |  | CCOc1cnc(N2CC(CS(C)(=O)=O)C2)c2cnc(Nc3ccnc(N4CC[C@@H](O)[C@@](C)(F)C4)n3)cc12 (single isomer, unassigned) [Compound 80] |
| 20.1 to 30 |  | 10.1 to 20 | CO[C@]1(C)CN(c2nccc(Nc3cc4c(C(C)C)ccc(N5CC(CS(C)(=O)=O)C5)c4cn3)n2)CC[C@@H]1O (single isomer, unassigned) [Compound 95, (3S,4R)-1-[4-({8-[3-(methanesulfonylmethyl)azetidin-1-yl]-5-(propan-2-yl)isoquinolin-3-yl}amino)pyrimidin-2-yl]-3-methoxy-3-methylpiperidin-4-ol or (3R,4S)-1-[4-({8-[3-(methanesulfonylmethyl)azetidin-1-yl]-5-(propan-2-yl)isoquinolin-3-yl}amino)pyrimidin-2-yl]-3-methoxy-3-methylpiperidin-4-ol] |
